Earlier results, collected in patent publication US20110159118A1, “Screening Method (Metabolite Grid) for Therapeutic Extracts and Molecules for Diabetes” (priority 2000, published 2011).

Columns and labels:
hyperglycemic rats = details: effect comparable to metformin
[1] = system: streptozotocin-diabetic mice; details: doses of 3.4-13.4 mg/kg, 6 h after the administration

## Oc1cc(O)c2c(c1)O[C@H](c1ccc(O)c(O)c1)[C@H](O)C2 [(−)-Epicatechin, (−)-epicatechin]
Alloxan diabetic rats; 30 mg/kg, i.p., twice daily for 3 days, begun 92 hr after alloxan
  blood glucose levels, control versus treated rats: no significant difference
Alloxan diabetic rats; given before or within 24 hr after the dose of alloxan
  hyperglycemia: reverse hyperglycemia

## COc1cc(O)cc2c1C(=O)C(O)(Cc1ccc(O)cc1)O2 (stereo not shown) [Marsupsin, marsupsin]
Hyperglycemic rats
  blood glucose level: significantly lowered

## gymnemic acid IV [Gymnemic acids]
[1]
  reduced the blood glucose levels: 13.5-60.0%
